# Tests used:
# RNF43 mutant cell lines = test: immunoblot and qPCR assays; format: cell-based, human
# Experimental: (§1) For reverse transcription and quantitative PCR (qPCR), total RNA was extracted from cells or tumors using the RNeasy Plus Mini Kit (Qiagen). 1 μg of RNA were reverse transcribed with Taqman Reverse Transcription Reagents (Applied Biosystems) according to the manufacturer's instruction. Quantitative PCR was performed in 12 μl reactions consisting of 0.6 μl of 20× Taqman probe and PCR primer mix, 6 μl 2× Taqman FAST Advanced Master Mix (Applied Biosystems), and 5.4 μl diluted cDNA template. The thermocycling conditions utilized were 20 seconds at 95° C., followed by 40 cycles of 1 second at 95° C. and 20 seconds at 60° C. All experiments were performed in quadruplicates. Gene expression analysis was performed using the comparative ΔΔCT method and normalized with the housekeeping gene GUSB or 18S. The Taqman probes were purchased from Applied Biosystems.
# (§2) We next characterized Wnt-dependency in pancreatic cancer cell lines.
# (§3) For immunoblotting, total cell lysates were prepared by lysing cells using RIPA buffer (50 mM Tris-HCl, pH 7.4, 150 mM NaCl, 1% NP-40, 0.5% sodium deoxycholate, 0.1% SDS, 1 mM EDTA) supplemented with protease inhibitors and phosphatase inhibitors, followed by centrifugation at 14,000 rpm for 10 min at 4° C. For cytosolic β-catenin extraction, cell pellets were resuspended in hypotonic buffer (10 mM Tris-HCl, pH 7.5 and 10 mM KCl, supplemented with protease/phosphatase inhibitors) and lysed by three freeze-thaw cycles. Equal amount of proteins were resolved by SDS-PAGE, transferred to nitrocellulose membranes, and incubated with primary antibodies for overnight at 4° C. Secondary antibodies conjugated with either HRP or infrared dyes were used for signal visualization by ECL film or LI-COR Odyssey scanner, respectively.
# [1] = system: RNF43 wild-type cell lines; test: immunoblot and qPCR assays; format: cell-based, human
# Experimental: as §1, §2, §3
# KP1-N = test: foci formation assay; format: cell-based, human; conditions: 1 μM LGK974
# Experimental: (§4) To assay foci formation, 6,000˜12,000 cells of indicated cell lines were seeded in 6 well tissue culture plate in 2 ml growth media. After overnight culture for cell attachment, media was replaced with fresh growth media containing 1 μM LGK974 in the absence and presence of recombinant Wnt3a. For DOX-inducible β-catenin shRNA experiment, cells were treated 5 ng/ml doxycycline. When cell colonies reached desirable size, cells were fixed with 4% formalin in PBS and stained with crystal violet solution. After a few washes, plates were dried and imaged.
# (§5) Identification of pancreatic cancer lines containing inactivation mutation of RNF43. Discovery of LGK974, a potent and selective inhibitor of Porcupine, offered us a unique chemical tool to systemically examine Wnt dependency in a large panel of cancer cell lines. We tested LGK974 in a large panel of pancreatic cancer cell lines using foci formation assay. Foci formation assay was utilized because it is more sensitive than routine growth assays such as CellTiter-Glo, and it is less affected by the different growth rates of various cell lines.
# YAPC = test: foci formation assay; format: cell-based, human; conditions: 1 μM LGK974
# Experimental: as §4, §5
# QGP-1 = test: foci formation assay; format: cell-based, human; conditions: 1 μM LGK974
# Experimental: as §4, §5
# HuPT3 = test: foci formation assay; format: cell-based, human; conditions: 1 μM LGK974
# Experimental: as §4, §5
# T3M4 = test: foci formation assay; format: cell-based, human; conditions: 1 μM LGK974
# Experimental: as §4, §5
# Capan-2 xenografts = test: PDAC xenograft model, in vivo efficacy and pharmacodynamics; parameters: species or system mice
# Text: (§6) To analyze the role of Wnt pathway activation in maintenance of RNF43 mutant pancreatic tumors in vivo, we utilized two PDAC xenograft models (HPAFII and Capan-2).
# (§7) For in vivo efficacy and pharmacodynamic studies, cells were harvested at a density of 95-110% confluency. 10 million cells (HPAFII) or 3 million cells (Capan-2) mixed 50:50 with BD matrigel matrix basement membrane (Matrigel) (BD Biosciences) were subcutaneously implanted into the upper right supra-axillary region of nu/nu (Harlan) (HPAFII) or scid.bg (Harlan) (Capan-2) mice. Tumors were monitored twice weekly by calipering and tumor volumes (TV) were calculated using the ellipsoid formula: TV(mm^3)=((l×w^2)×3.14159))/6. Xenograft tumor-bearing mice were randomized to treatment groups (n=8 per group) either 14 days post tumor implant (Capan-2), when the mean tumor volume reached 223 mm^3 (range 200-250 mm^3) or 11 days post implant (HPAFII), when the mean tumor volume reached 341 mm^3 (range 272-418 mm^3). Mice were treated by oral gavage (p.o.) twice daily (BID) at a dosing volume of 10 mL/kg with either vehicle (0.5% methylcelluose (MC)/0.5% Tween 80) or a 0.65 mg/mL suspension of the fumarate salt form of LGK974 (LGK974-AE-4, free base molecular weight conversion factor 1.293) in 0.5% MC/0.5% Tween 80. In vivo doses are reported as free base equivalents. Following treatment for 14 days (HPAFII) or 35 days (Capan-2), anti-tumor activity was reported as percent treatment/control (% T/C) or % Regression (% REG) values. Anti-tumor activity was calculated using the following formula: % T/C=100 ΔΔTt/ΔCt if ΔTt≧0; or % REG=100 ΔΔTt/T0 if ΔTt<0; where: T0=mean tumor volume (TV) of the drug-treated group on the day of randomization; Tt=mean TV of the drug-treated group at study end; […]; Ct=mean TV of the control group on the final day of the study; C0=mean TV of the control group on the day of randomization; and ΔCt=C0−Ct*% T/C values in the range of 100 to 42% are interpreted to have no anti-tumor activity; % T/C values 42% and >10% are interpreted to have anti-tumor activity, % T/C values 10% or % REG≧-10% are interpreted to be tumor stasis. % REG values <-10% are interpreted as regressions. Separate, parallel cohorts of animals (n=3 per treatment and time point) were treated with vehicle or LGK974 as above to obtain tumor tissue for ex vivo analysis of pharmacodynamic markers.
# (§8) Furthermore, treatment of mice bearing Capan-2 xenografts with 5 mg/kg LGK974, p.o. BID for 35 days achieved tumor stasis (T/C=5%). Consistent with the mechanism of action of LGK974, expression of the β-catenin target gene, AXIN2, was decreased in treated HPAFII and Capan-2 xenografts.
# HPAFII xenografts = test: as above; parameters: species or system mice
# Text: as §6, §7, §8
compound,measurement,setting,value
"Cc1cc(-c2ncc(CC(=O)Nc3ccc(-c4cnccn4)cn3)cc2C)ccn1 [LGK974, 2-[5-methyl-6-(2-methylpyridin-4-yl)pyridin-3-yl]-N-[5-(pyrazin-2-yl)pyridin-2-yl]acetamide]",cytosolic β-catenin,RNF43 mutant cell lines; RNF43 mutant cell lines,decreased
same,expression of MYC,RNF43 mutant cell lines; RNF43 mutant cell lines,decreased
same,expression of cyclin dependent kinase inhibitor p21,RNF43 mutant cell lines; RNF43 mutant cell lines,increased
same,expression of β-catenin target gene AXIN2,RNF43 mutant cell lines; RNF43 mutant cell lines,decreased
same,"expression of differentiation marker MUC2, MUC5A/C",RNF43 mutant cell lines; RNF43 mutant cells,induced
same,cytosolic β-catenin,[1],decreased
same,expression of MYC,[1],not
same,expression of cyclin dependent kinase inhibitor p21,[1],not
same,expression of β-catenin target gene AXIN2,[1],decreased
same,Growth inhibition in foci formation assay,KP1-N,No
same,Growth inhibition in foci formation assay,YAPC,without significant effect and No
same,Growth inhibition in foci formation assay,QGP-1,No
same,Growth inhibition in foci formation assay,HuPT3,No
same,Growth inhibition in foci formation assay,T3M4,No
same,cell cycle arrest and differentiation within the xenograft tumors,Capan-2 xenografts; Capan-2 xenograft tumors,induced cell cycle arrest and differentiation
same,T/C (tumor stasis),"Capan-2 xenografts; mice bearing Capan-2 xenografts, 5 mg/kg p.o. BID for 35 days",5%
same,expression of the β-catenin target gene AXIN2 in xenografts,Capan-2 xenografts; treated Capan-2 xenografts,decreased
same,cell cycle arrest and differentiation within the xenograft tumors,HPAFII xenografts; HPAFII xenograft tumors,induced cell cycle arrest and differentiation
same,T/C (tumor growth in treated relative to vehicle),"HPAFII xenografts; mice bearing HPAFII xenografts, 5 mg/kg p.o. BID for 14 days",33%
same,expression of the β-catenin target gene AXIN2 in xenografts,HPAFII xenografts; treated HPAFII xenografts,decreased
